Measured values as given in US7718639B2, “7-hydroxyepiandrosterone having neuroprotective activity” (Hunter-Fleming Limited, priority 2000, dated 2010).

How the values were obtained:
[1] = test system: CA1 cell layer of organotypic hippocampal slice cultures; test: Hypoxic neuronal damage in organotypic hippocampal slice cultures (PI fluorescence in CA1); assay type: cell-based, Wistar rat; settings: for reduction of hypoxic CA1 damage (in words): present pre-
Protocol: Organotypic hippocampal slice cultures were prepared using the basic method of Pringle et al (1996, 1997) modified as follows:
Wistar rat pups (8-11 days old) were decapitated and the hippocampus rapidly dissected into ice-cold Gey's balanced salt solution supplemented with 4.5 mg/ml glucose. Slices were separated and plated onto Millicell CM culture inserts (4 per well) and maintained at 37° C./5% CO2 for 14 days. Maintenance medium consisted of 25% heat-inactivated horse serum, 25% Hank's balanced salt solution (HBSS) and 50% minimum essential medium with added Earle's salts (MEM) supplemented with 1 mM glutamine and 4.5 mg/ml glucose. Medium was changed every 3-4 days.
Experimental hypoxia was performed as described previously (Pringle et al., 1996; 1997). Briefly, cultures were transferred to serum free medium (SFM—75% MEM, 25% HBSS supplemented with 1 mM glutamine and 4.5 mg/ml glucose) containing 5 μg/ml of the fluorescent exclusion dye propidium iodide (PI). Cultures were allowed to equilibrate in SFM for 60 minutes prior to imaging. PI fluorescence was detected using a Leica inverted microscope fitted with a rhodamine filter set. Any cultures in which PI fluorescence was detected at this stage were excluded from further study. Hypoxia was induced by transferring cultures to SFM (+PI) which had been saturated with 95%N2/5%CO2. Culture plates (without lids) were then sealed into an airtight chamber in which the atmosphere was saturated with 95%N2/5%CO2 by continuously blowing through gas at 10 L/min for ten minutes before being sealed and placed in the incubator for 170 mins (total time of hypoxia was therefore 180 mins). At the end of the hypoxic period cultures were returned to normoxic SFM containing PI and placed back in the incubator for 24 hours.
Neuronal damage was assessed as described previously (Pringle et al., 1996; 1997) using either NIH Image 1.60 running on an Apple IIsi computer or OpenLab 2.1 (Improvision) running on a Macintosh G4/400. Images were captured using a monochrome camera and saved onto optical disk for offline analysis. Light transmission images were captured prior to the addition of drugs, and PI fluorescence images recorded at the end of the 24-hour post-hypoxia recovery period. The area of the CA1 cell layer was determined from the transmission image. The area of PI fluorescence in CA1 was measured using the density slice function within NIH image or Openlab, and neuronal damage expressed as the percentage of the CA1 in which PI fluorescence was detected above background.
Steroid compounds were prepared by making an initial 1 mg/ml solution in ethanol and further diluting down in SFM. Compounds were added to the cultures for 45 minutes prior to hypoxia, during the hypoxic episode and during the post-hypoxic recovery period. Control experiments consisted of cultures treated with vehicle alone.

[2] = test system: hippocampal CA1 pyramidal cells; test: Global cerebral ischemia in rats (4 vessel occlusion), surviving CA1 neurons by Nissl staining; assay type: in vivo, male Wistar rats
Protocol: Cerebral ischemia was induced by four-vessel-occlusion (4VO) in male Wistar rats (250-280 g). Both vertebral arteries were occluded by electrocauterization in pentobarbital anesthesia (60 mg/kg i.p.). The animals were allowed to recover for 24 hours with free access to water but not food. The next day the carotid arteries were exposed under 2% halothane in 30% oxygen/70% nitrous oxide anesthesia and were occluded for 10 minutes using microvascular claps. Subsequently, both clamps were removed and both arteries were inspected for immediate reperfusion. During the operation and the following 3 hours normothermia of the animals (37.5Γ0.5° C.) was maintained by using a thermostatically controlled heating blanket connected to a rectal thermometer. For control, in sham-operated animals both vertebral arteries were cauterized in pentobarbital anesthesia and both common carotid arteries were exposed but not clamped under 2% halothane in 30% oxygen/70% nitrous oxide anesthesia the following day. The wound was treated with lidocaine gel and then sutured. The animals were kept under a heating lamp at 30° C. environmental temperature until they regained consciousness.
Seven groups of animals were investigated: • 1. (n=8) steroid compound, 7β-OH EPIA (0.1 mg/kg, i.v. via tail vein, three injections: 15 minutes prior to the induction of ischemia, during ischemia and 5 minutes after reperfusion); • 2. (n=8) steroid compound, 7β-OH EPIA (0.3 mg/kg, i. v. three injections as described in 1.); • 3. (n=8) steroid compound, 7β-OH EPIA (1 mg/kg, i. v., three injections as described in 1.); • 4. (n=8) NBQX (disodium salt, because more water soluble) as reference substance and positive control (TOCRIS, Germany, 30 mg/kg, i. p., three injections as described in 1.); • 5. (n=8) received vehicle (0.9% NaCl, containing 100 μl Ethanol) three injections as described in 1.); • 6. (n=8) ischemia alone; • 7. (n=8) sham operated controls.
The substances were dissolved in 100 μl Ethanol and finally diluted with 0.9% NaCl.
After a survival time of 7 days after ischemia, all animals were perfusion fixed transcardially with 4% paraformaldehyde. The brains were then removed carefully and postfixed in the same fixative for 2 hours. After cryoprotection in 30% sucrose, the brains were rapidly frozen in isopentane and stored at −80° C. Twenty-micrometer cryostat sections comprising the hippocampal formation were Nissl stained with toluidine blue or NeuroTrace fluorescence.
The severity of neuronal damage in the hippocampal CA1 region after ischemia was evaluated by the number of surviving neurons using Nissl staining. The mean number of morphologically intact neurons per 400 μm length was calculated in CA1 region for each group. […] The data were statistically analyzed by paired Student's t-test. […]

[3] = Experiment 1, 100 nM, compound present pre-, during and post-hypoxia, control hypoxia 25.5 ± 6.4
[4] = Experiment 1, 100 nM, during and post-hypoxia
[5] = Experiment 2, 1 nM, control hypoxia 31.9 ± 4.7
[6] = Experiment 2, 10 nM, control hypoxia 31.9 ± 4.7
[7] = Experiment 2, 100 nM, control hypoxia 31.9 ± 4.7

CC12CCC3C(C1CCC2=O)[C@H](O)C[C@H]1C[C@@H](O)CCC31C (stereo partly drawn) [7αOH-EPIA, 7α-Hydroxy-EPIA]
% Damage in CA1 [1, 3]: 4.0 ± 2.9 %
reduction of hypoxic CA1 damage (in words) [1, 4]: significantly reduced
neuroprotective effect against hypoxic damage (in words) ([1]; Experiment 2, 1 nM): no effect
% Damage in CA1 [1, 5]: 28.8 ± 5.8%
neuroprotective effect against hypoxic damage (in words) ([1]; Experiment 2, 10 nM): not-statistically significant reduction
% Damage in CA1 [1, 6]: 21.9 ± 8.1%
neuroprotective effect against hypoxic damage (in words) ([1]; Experiment 2, 100 nM): significantly protective
% Damage in CA1 [1, 7]: 11.8 ± 2.8 %

CC12CCC3C(C1CCC2=O)[C@@H](O)C[C@H]1C[C@@H](O)CCC31C (stereo partly drawn) [7βOH-EPIA, 7β-hydroxyepiandrosterone]
% Damage in CA1 [1, 3]: 9.0 ± 4.7 %
reduction of hypoxic CA1 damage (in words) [1, 4]: significantly reduced
neuroprotective effect against hypoxic damage (in words) ([1]; Experiment 2, 1 nM): activity was lost
% Damage in CA1 [1, 5]: 20.6 ± 7.2%
neuroprotective effect against hypoxic damage (in words) ([1]; Experiment 2, 10 nM): significantly neuroprotective
% Damage in CA1 [1, 6]: 11.9 ± 4.7 %
neuroprotective effect against hypoxic damage (in words) ([1]; Experiment 2, 100 nM): significantly neuroprotective
% Damage in CA1 [1, 7]: 14.3 ± 5.0 %
neuroprotective effect on CA1 pyramidal cells compared to the sham operated group ([2]; 0.1 mg/kg i.v., three injections, 10 min global ischemia, 7 days survival, p=0.01): 74.8%
neuroprotective effect on CA1 pyramidal cells compared to the sham operated group ([2]; 0.3 mg/kg i.v., three injections, 10 min global ischemia, 7 days survival, p=0.0008): 83.9%
neuroprotective effect on CA1 pyramidal cells (in words) ([2]; 1.0 mg/kg i.v., three injections, 10 min global ischemia, 7 days survival): only a tendency to neuroprotection, but the effect was not significant
behavioral abnormalities of the animals ([2]; injected i.v. prior, during and after ischemia, all experiments): never observed any behavioral abnormalities
